Entries after “also recorded” stand apart in the source; their conditions may differ. Like-named read-outs stand apart in the source and are kept apart here.
How the values were obtained:
[1] = tested on: primary human osteoblasts; test: Osteoblast mineralization (Alizarin Red S) from mesenchymal stem cells; assay type: cell-based
Description: A) Each dot represents the effects of a compound in the indicated assays at 10 uM. N=4-6 from two different experiments. […] C) SR11466 is efficacious at inhibiting IL-6 secretion from A549 cells. C-E). […] D) Mitochondrial activity was measured in myoblasts using high content imaging with mitotracker dye after 24 treatment. New amino acid incorporation was measured with LICOR in cell western for puromycin (SunSet assay). E) top, MMTV-luciferase reporter data. N=3, mean+SEM. Bottom, Mineralization of primary human OBs was assayed after two weeks of differentiation from MSC and two weeks of mineralization. N=4, mean+SEM, 2-way ANOVA.
As a further test for dissociation, the compounds were profiled in primary human osteoblasts for effects on osteogenesis during 4 weeks of differentiation from mesenchymal stem cells. Specifically, osteoblast mineralization was examined as follows. Human mesenchymal stem cells (MSCs) at passage 2 were maintained in growth media consisted of alpha-MEM (Life Technologies, 32561-037) supplemented with 17% FBS (Sigma-Aldrich, 12303C), 2 mM L-glutarnine (Life Technologies, 25030-081), and 100 units/mL penicillin/streptomycin (Life Technologies, 15140-122). Effect of glucocorticoid receptor modulators on osteogenic differentiation of MSCs was quantified using Alizarin Red S (Sigma-Aldrich, A5533) staining. Briefly, human MSCs were seeded in the middle 8 wells of 48-well plates at plating density of 10,000 cells per well. PBS (Life Technologies, 10010-031) was added to surrounding wells to reduce evaporation of media in the middle wells during prolonged incubation. 24 h later, growth media was replaced by osteogenic induction media (OIM) consisted of low-glucose DMEM (Life Technologies, 10567-014) supplemented with 10% FBS (Sigma-Aldrich. 12303C), 50 μg/ml L-ascorbic-2-phosphate (Sigma-Aldrich, A8960), 10 mM β-glyceroiphosphate (Sigma-Aldrich, G9891), and glucocorticoid modulators. OIM containing test compounds was replaced every week. At the end of 2 weeks, monolayers were washed with PBS (Life Technologies, 10010-031), incubated in Richard-Allan Scientific™ Neutral Buffered Formalin (10%) (Thermo Scientific, 5725) for 2 h at room temperature, washed with deionized water and stained with Alizarin Red S for 30 min at room temperature. Monolayers were then rinsed 3×with deionized water until clear, stain was then extracted with 10% (w/v) cetylpyridinium chloride (Sigma-Aldrich, C0732) in 10 mM sodium phosphate (Sigma, S5011 and S5136), pH 7.0 for 15 min at room temperature and the amount of extracted dye quantified spectroscopically at 562 nm. Spectroscopic analysis performed using a synergy™ NEO HTS Multi-Mode Microplate Reader (BioTek Instruments, Inc.).

[2] = molecular target: T1, glucocorticoid receptor (GR) (Homo sapiens, UniProt P04150); test: GR-driven (MMTV) luciferase reporter assay, agonist and antagonist mode; assay type: cell-based
T1 construct: expressed in transfected cells; host or cells: 293T
T1 sequence (P04150 1-777): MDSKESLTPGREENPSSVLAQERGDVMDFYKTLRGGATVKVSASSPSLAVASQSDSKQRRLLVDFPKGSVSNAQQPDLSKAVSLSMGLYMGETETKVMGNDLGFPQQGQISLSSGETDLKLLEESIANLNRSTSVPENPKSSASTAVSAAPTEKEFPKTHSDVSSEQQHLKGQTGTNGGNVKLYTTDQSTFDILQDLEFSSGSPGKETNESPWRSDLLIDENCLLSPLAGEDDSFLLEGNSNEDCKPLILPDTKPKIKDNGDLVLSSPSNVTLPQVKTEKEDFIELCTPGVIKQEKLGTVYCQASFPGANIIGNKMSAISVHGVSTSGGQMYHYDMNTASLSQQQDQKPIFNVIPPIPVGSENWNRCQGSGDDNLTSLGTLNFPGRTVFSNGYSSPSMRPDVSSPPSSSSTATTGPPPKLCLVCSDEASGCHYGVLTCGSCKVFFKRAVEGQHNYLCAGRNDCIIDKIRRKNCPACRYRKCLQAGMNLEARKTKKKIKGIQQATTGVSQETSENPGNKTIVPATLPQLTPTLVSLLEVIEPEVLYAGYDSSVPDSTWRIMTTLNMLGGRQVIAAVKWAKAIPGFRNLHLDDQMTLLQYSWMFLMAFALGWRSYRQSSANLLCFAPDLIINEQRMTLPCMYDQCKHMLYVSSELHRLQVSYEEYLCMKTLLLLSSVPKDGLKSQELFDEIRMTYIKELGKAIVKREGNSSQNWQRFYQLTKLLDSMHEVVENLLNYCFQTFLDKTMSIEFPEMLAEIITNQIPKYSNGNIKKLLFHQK
Description: For native gene expression, C2C12 myotubes were treated compounds for 24 h. For MMTV-Luc assay, steroid-deprived 293T cells were co-transfected with a GR expression plasmid and an MMTV-driven luciferase reporter plasmid. The next day, cells were treated with compounds for 24 hrs. Each point represents the average of triplicate biological measurements for a separate compound. B) AR Luc assay development. Steroid-deprived 293T cells were transfected with AR expression plasmid and an ARR3-tk-driven luciferase reporter. The next day cells were treated with increasing doses of the indicated compounds. Data shown are mean+SD of triplicate measurements. C) AR-Luc assay identified 5 GCs with some AR activity.
A) The effects of all tested compounds on IL-1β-induced IL-6 production (x-axes) versus GR interaction with the indicated peptides. B-C) The effects of all tested compounds on the indicated GC-regulated phenotypes (x-axes) versus GR interaction with the CHD9_1023 and CENPR_1 peptides (y-axes). D-F) COC plots. Each point represents the Pearson correlation coefficient, r, between a distinct gene expression or GR-peptide interaction assay with assays indicated on the x and y axes. G) The effects of all tested compounds on IL-1β-induced IL-6 production (y-axes) versus insulin-induced protein synthesis. […] IL-β-induced IL-6 production by A549 cells treated with the indicated compounds was compared by AlphaLISA. […] Mice in panel K were subjected to a lactate-tolerance test (LTT).
For inclusion in the statistical analyses, assays were required to show high reproducibility, with a Pearson correlation >0.8 between different experiments (FIG. 2, H; FIG. 9, A). […] We also analyzed the effects of the compounds on expression of Fkbp5, Pdk4, and Klf15 mRNAs in C2C12 myotubes, and MMTV-luciferase and androgen receptor (AR) driven-luciferase activity in 293T cells. Fkbp5 and Pdk4 are among the most highly expressed GR target genes, while Klf15 is a known GR target gene that inhibits protein synthesis and stimulates expression of genes that facilitate protein degradation (Shimizu et al., Cell Metabol. 13, 170-182, 2011). We also analyzed the effects of compounds on nuclear translocation of GR using a quantitative HTS approach (Htun et al., Proc. Natl. Acad. Sci. USA 93, 4845-4850, 1996). To visualize the variance of the compounds, we expressed the data as Z score for each assay, in units of standard deviation (FIG. 9, A). […] We used an AR-luciferase assay to test for androgenic activity (FIG. 9, B). From this we identified a handful compounds with AR activity >5% (FIG. 9, C).

| modulator profile (agonist/antagonist) [2] | EC50 ([2]; read-out: EC50 in a luciferase reporter assay) | IC50 ([2]; read-out: IC50 for GR-driven luciferase activity) | EC50 ([2]; assay not given, read-out: EC50) | IC50 ([2]; read-out: IC50 for displacing 10 nM Dex, antagonist mode, 10 nM Dex) | IC50 ([2]; read-out: IC50 in the reporter assay) | SMILES | effect on mineralization (bone) [1] |
| --- | --- | --- | --- | --- | --- | --- | --- |
| – | – | – | – | – | – | CC#CC1(O)CCC2C3CCc4cc(C(=O)Nc5cccnc5C)ccc4C3C(OCc3ccc(Cl)cc3)CC21C (centres unmarked) [SR16025] | more than quadrupled; also recorded: quadruple |
| partial agonist | 0.1 nM | 0.24 nM | – | – | – | C=CCOC1CC2(C)C(CCC2(O)C#CC)C2CCc3cc(C(=O)Nc4cccnc4C)ccc3C12 (centres unmarked) [SR11466] | modest improvements on mineralization |
| – | – | – | 240 nM | – | – | CC#CC1(O)CCC2C3CCc4cc(C(=O)Nc5cnccc5C)ccc4C3C(O)CC21C (centres unmarked) [SR15421] | completely bone sparing |
| full antagonist | – | – | – | 1 nM | 1.5 nM | CC#CC1(O)CCC2C3CCc4cc(C(=O)Nc5cccnc5C)ccc4C3C(OCc3ccccc3Cl)CC21C (centres unmarked) [SR16024] | bone sparing |

— US20230263808A1 (UNIVERSITY OF FLORIDA RESEARCH FOUNDATION, INCORPORATED, priority 2020, published 2023)
